This assay has as its target T1, ST3Gal-II (Rattus norvegicus, UniProt Q11205).
T1 construct: purchased Calbiochem
T1 sequence (Q11205 1-350): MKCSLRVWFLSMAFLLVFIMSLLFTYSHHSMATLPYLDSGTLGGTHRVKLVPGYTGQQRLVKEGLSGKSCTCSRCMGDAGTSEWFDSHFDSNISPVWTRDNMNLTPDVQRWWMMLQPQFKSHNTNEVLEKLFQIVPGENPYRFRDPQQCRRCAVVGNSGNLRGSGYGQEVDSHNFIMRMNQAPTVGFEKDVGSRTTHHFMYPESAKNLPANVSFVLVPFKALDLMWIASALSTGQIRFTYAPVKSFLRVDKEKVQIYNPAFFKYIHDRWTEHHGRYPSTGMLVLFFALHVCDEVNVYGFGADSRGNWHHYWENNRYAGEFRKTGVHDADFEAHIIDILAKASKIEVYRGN
The assay can be described thus: Reverse sialylation: transfer of [9-3H]NeuAc from sialylated donor to nucleotide phosphates (WGA-agarose). Format: biochemical. Conditions: donor [1]; for Incorporation of [9-3H]NeuAc expressed as percent of the CPM incorporated into 5′-CMP: nucleotide phosphate 1 mM as acceptor. How it is done:
FIG. 1. Nucleotide phosphates as acceptors of radioactivity from [9-^3H]NeuAcα2,3Galβ,13 (GlcNAcβ1,6)GalNAcα-O—Al (Al=Allyl) [[9-^3H] [1]] in the presence of ST3Gal-II (scheme-I). Reaction mixtures (RM) with the following composition were incubated at 37° C. for 21 hours in 100 mM NaCa Codylate buffer, pH6.0: i) RM containing 150 μM (0.4 μCi) [[9-^3H] [1]] (donor) along with 0.8 mU ST3Gal-II but no 5″-CMP; and, ii) RM containing [[9-^3H] [1]] and 1.0 mM 5′-CMP, along with ST3Gal-II. Products formed were fractionated on a WGA-agarose column. […] The feasibility of the reverse reaction is well established in literature. Schematic symbols: ♦:sialic acid, ●:Gal, □:GalNAc, ▪:GlcNAc.
All enzymatic sialylation reactions were typically carried out in 100 mM NaCa Codylate buffer pH6.0 in the presence of enzyme, synthetic acceptor (at 7.5 mM or as indicated in each experiment) and 0.2 μCi CMP-[9-^3H]NeuAc (NEN-Dupont, 29 mCi/μmol). The concentration of total CMP-NeuAc was adjusted in individual reactions by supplementing with additional cold CMP-NeuAc. Reaction volume was 20 μl. Products formed were separated using four different chromatography procedures (below). In all cases, the radioactive content of isolated products was determined by using 3a70 scintillation cocktail (Research Products International, Mount Prospect, Ill.), and a Beckman LS6500 scintillation counter.
a) Biogel P2 chromatography: A Biogel P2 column (Fine Mesh; 1.0×116.0 cm) was used with 0.1 M pyridine acetate (pH5.4) as the eluent at room temperature. […] Fractions of 1.0 ml were collected. The bound material was then eluted with 0.5M GlcNAc or 0.2M Gal in the same buffer. […] Calculation of equilibrium constant, Keq: Equilibrium constant was calculated for selected reversible bimolecular reactions that are denoted by:
Cloned and purified rat sialyltransferase α2,3(O)ST (ST3Gal-II) is used in many experiments presented in this manuscript. […] In order to determine if the sialylation reaction is reversible (FIG. 1), [9-^3H]NeuAcα2,3Galβ,13(GlcNAcβ1,6)GalNAcα-O—Al (Al=Allyl) [9-^3H[1]] was prepared using ST3Gal-II in the presence of CMP-[9-^3H]NeuAc and the trisaccharide acceptor Galβ1,3(GlcNAcβ1,6)GalNAcα-O—Al, and the radiolabeled product was isolated using Biogel P2 chromatography. […] Two different reaction mixtures were then prepared with: i) [9-^3H[1]] and ST3Gal-II but without 5″-CMP; and ii) [9-^3H[1]] and 5″-CMP along with ST3Gal-II.

Structures are written as SMILES.

Regarding `Nc1ccn([C@@H]2O[C@H](COP(=O)(O)OP(=O)(O)O)[C@@H](O)[C@H]2O)c(=O)n1` [5′-CDP], the “Incorporation of [9-3H]NeuAc expressed as percent of the CPM incorporated into 5′-CMP” value was 28.4%. As to `Nc1ccn([C@@H]2O[C@H](COP(=O)(O)O)[C@@H](O)[C@H]2O)c(=O)n1` [5′-CMP, Cytidine 5′-monophosphate], the “Incorporation of [9-3H]NeuAc expressed as percent of the CPM incorporated into 5′-CMP” value is reported as 100.0%. Further, the “Incorporation of [9-3H]NeuAc” value (1 mM nucleotide phosphate) is “(44197 CPM)”.

For the origin of these results see patent US8278072B1, “Method for synthesis of sialylated products using reversible sialylation” (Health Research, Inc., priority 2007, dated 2012).
